Molecular target: Protein arginine N-methyltransferase 5/MEP50 complex (Homo sapiens)
Experiment: Inhibition of full-length recombinant PRMT5/full-length recombinant MEP50 (unknown origin) expressed in baculovirus infected Sf21 cells using biotinylated H4R3(Mel) peptide as substrate preincubated for 60 mins followed by substrate addition and measured for 150 minutes in the presence of SAM by methylation assay

With `CC(=O)N1CCC(Nc2cc(C(=O)N3CC[C@H](N4CCc5ccccc5C4)[C@@H](O)C3)c(F)cn2)CC1` the EC50 was 0.9 nM.

Reference: BindingDB's records for doi:10.1021/acs.jmedchem.3c00250 (n/a, 2023)
